From PMC7144264 (Journal of Enzyme Inhibition and Medicinal Chemistry, 2020)
Entries after “also recorded” stand apart in the source; their conditions may differ.

Experiments:
rat brain FAAH [1] = molecular target: T1, rat brain FAAH (Rattus norvegicus, UniProt P97612); test: FAAH assay: hydrolysis of [3H]AEA by rat brain homogenates; format: biochemical; details: for IC50: 0.5 µM [3H]AEA, rat brain homogenates, read-out: IC50 for inhibition of the hydrolysis of [3H]AEA
T1 construct: hydrolysis of 0.5 µM [^3H]AEA by rat brain homogenates; from tissue; host or cells: rat brain (minus cerebella), washed membrane homogenate
T1 sequence (P97612 1-579): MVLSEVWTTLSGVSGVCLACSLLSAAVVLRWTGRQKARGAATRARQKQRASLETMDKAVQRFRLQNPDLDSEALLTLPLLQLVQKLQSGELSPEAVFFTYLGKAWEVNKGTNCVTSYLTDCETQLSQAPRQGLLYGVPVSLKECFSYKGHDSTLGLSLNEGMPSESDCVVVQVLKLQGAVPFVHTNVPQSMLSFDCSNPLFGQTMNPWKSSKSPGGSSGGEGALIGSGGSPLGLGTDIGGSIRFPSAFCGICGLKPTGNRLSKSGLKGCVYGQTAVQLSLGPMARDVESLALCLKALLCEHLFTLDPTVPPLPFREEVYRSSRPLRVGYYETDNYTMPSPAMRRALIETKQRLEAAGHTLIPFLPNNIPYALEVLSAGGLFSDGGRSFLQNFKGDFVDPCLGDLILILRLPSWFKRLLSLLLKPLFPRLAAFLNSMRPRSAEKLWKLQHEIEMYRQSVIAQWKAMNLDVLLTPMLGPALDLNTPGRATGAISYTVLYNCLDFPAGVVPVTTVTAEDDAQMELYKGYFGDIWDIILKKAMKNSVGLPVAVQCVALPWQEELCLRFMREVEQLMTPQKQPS
Description: Frozen (−80 °C) brains (minus cerebella) from adult Wistar or Sprague-Dawley rats were thawed and homogenised in 20 mM HEPES, 1 mM MgCl2, pH 7.0. The homogenates were then centrifuged at ∼35000 x g for 20 min at 4 °C followed by washing (by recentrifugation and by resuspension in the buffer) twice before incubation at 37 °C for 15 min in order to hydrolyse all endogenous FAAH substrates. After a further centrifugation, pellets were resuspended in 50 mM Tris-HCl buffer, pH 7.4, containing 1 mM EDTA and 3 mM MgCl2, and frozen at −80 °C in aliquots until used for the assay. For the FAAH assay, test compounds, homogenates and [^3H]AEA (diluted with non-radioactive AEA to give a substrate concentration of 0.5 μM) in 10 mM Tris- HCl, 1 mM EDTA, pH 7.4, containing 1% w/v fatty acid-free bovine serum albumin were incubated for 10 min at 37 °C. Activated charcoal in 0.5 M HCl was added to adsorb the unmetabolized [^3H]AEA and the samples were mixed and left at r.t. for ∼30 min. Following centrifugation at 2000 g for 10 min, aliquots of the supernatants, containing the [^3H]ethanolamine produced by hydrolysis of [^3H]AEA, were analysed for tritium content by liquid scintillation spectroscopy with quench correction. Blank values were obtained by the use of buffer rather than homogenate.
Data were expressed as % of vehicle (ethanol) control and analysed using the algorithm log(inhibitor) vs. response – variable slope (four parameters) built into the GraphPad Prism computer programme v8.3 for the Macintosh (GraphPad Software Inc., San Diego, CA). The programme reports 95% confidence limits (profile likelihood) for the IC50 values and these presented in the results.

[2] = in vivo; cited from earlier work
[3] = mouse; cited from earlier work
ovine COX-1 [4] = molecular target: T2, ovine COX-1 (Ovis aries, UniProt P05979); details: read-out: concentration reducing the rate of cyclooxygenation to about half; COX-1, AA as substrate; cited from earlier work
T2 sequence (P05979 25-600): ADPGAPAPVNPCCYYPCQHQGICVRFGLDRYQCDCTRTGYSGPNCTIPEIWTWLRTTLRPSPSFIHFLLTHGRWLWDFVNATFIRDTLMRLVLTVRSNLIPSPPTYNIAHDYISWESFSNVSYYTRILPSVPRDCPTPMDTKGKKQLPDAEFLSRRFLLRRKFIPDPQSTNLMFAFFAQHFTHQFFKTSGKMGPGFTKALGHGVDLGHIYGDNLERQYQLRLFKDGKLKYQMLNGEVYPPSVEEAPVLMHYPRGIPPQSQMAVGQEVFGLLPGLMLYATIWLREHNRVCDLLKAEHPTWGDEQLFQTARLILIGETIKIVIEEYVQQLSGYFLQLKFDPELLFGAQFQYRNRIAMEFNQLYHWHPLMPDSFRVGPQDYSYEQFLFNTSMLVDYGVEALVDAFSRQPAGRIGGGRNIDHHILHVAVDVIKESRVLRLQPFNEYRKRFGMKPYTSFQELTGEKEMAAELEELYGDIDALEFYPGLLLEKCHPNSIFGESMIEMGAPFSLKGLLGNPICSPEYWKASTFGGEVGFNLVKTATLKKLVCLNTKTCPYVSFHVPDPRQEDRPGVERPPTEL

human recombinant COX-2 [5] = molecular target: T3, human recombinant COX-2 (Homo sapiens, UniProt P35354); details: cited from earlier work
T3 sequence (P35354 18-604): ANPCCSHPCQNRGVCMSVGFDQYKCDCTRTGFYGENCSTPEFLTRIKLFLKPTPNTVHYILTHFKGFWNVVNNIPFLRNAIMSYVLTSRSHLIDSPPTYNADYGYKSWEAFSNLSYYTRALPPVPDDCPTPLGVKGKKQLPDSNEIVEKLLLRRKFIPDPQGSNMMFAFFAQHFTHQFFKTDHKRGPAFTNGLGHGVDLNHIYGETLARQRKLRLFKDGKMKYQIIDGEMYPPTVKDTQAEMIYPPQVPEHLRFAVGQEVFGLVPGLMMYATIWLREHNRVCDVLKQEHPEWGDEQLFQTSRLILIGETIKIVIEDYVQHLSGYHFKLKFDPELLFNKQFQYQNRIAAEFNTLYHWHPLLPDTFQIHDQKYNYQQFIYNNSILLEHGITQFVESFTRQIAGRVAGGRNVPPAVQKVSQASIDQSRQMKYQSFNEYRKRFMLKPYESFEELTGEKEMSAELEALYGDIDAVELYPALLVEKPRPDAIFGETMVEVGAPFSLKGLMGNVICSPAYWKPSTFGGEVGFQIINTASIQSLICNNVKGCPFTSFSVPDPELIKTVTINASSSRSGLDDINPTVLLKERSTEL

ovine COX-1 [6] = molecular target: T2, ovine COX-1; test: COX-1 assay, oxygen electrode (cyclooxygenation of substrate); format: biochemical; parameters: purchased Cayman Chemical Co. 60100; details: 10 µM AA
Description: (§1) The assay was performed essentially according to the method of Meade et al[21]. An oxygen electrode chamber with integral stirring (Oxygraph System, Hansatech Instruments, King ´s Lynn, U.K.) was calibrated daily to ambient temperature and air pressure. The assay buffer contained 0.1 M Tris-HCl buffer pH 7.4, 1 μM haematin, 2 mM phenol, 5 mM EDTA, 10 μM substrate (AA or 2-AG) in a final assay volume was 2 ml. After addition of test compound, a baseline was established for 5 min before initiation of reaction by addition of 200 units ovine COX-1 or human recombinant COX-2. The change in oxygen consumption as a measurement of enzyme activity was monitored for approximately 5 min.

rat brain FAAH [7] = molecular target: T1, rat brain FAAH; test: FAAH assay: hydrolysis of [3H]AEA by rat brain homogenates; format: biochemical; details: kinetics of inhibition of rat FAAH, mixed-type model
human recombinant COX-2 [8] = molecular target: T3, human recombinant COX-2; test: COX-2 assay, oxygen electrode (cyclooxygenation of AA, 2-AG or AEA); format: biochemical; parameters: purchased Cayman Chemical Co. 60122; details: for inhibition of AA cyclooxygenation by COX-2: 10 µM AA
Description: as §1

COX = system: COX; parameters: method as in PMID 28535469; details: cited from earlier work
[9] = parameters: method as in PMID 25757568; details: cited from earlier work
COX-2 = system: COX-2; parameters: method as in PMID 25757568; details: cited from earlier work
COX-1 = system: COX-1; parameters: method as in PMID 25757568; details: cited from earlier work
FAAH = system: FAAH; parameters: method as in PMID 25757568; details: cited from earlier work
rat brain FAAH [10] = molecular target: T1, rat brain FAAH; details: removal of the methyl group at the C-2 carbon atom; cited from earlier work

`CC(C)Cc1ccc(C(C)C(=O)Nc2ccc(O)cc2)cc1` (stereo not drawn) [Ibu-AM65, N-(4-Hydroxyphenyl)-2-(4-isobutylphenyl)propanamide] showed an IC50 (rat brain FAAH [1]) of 3800 nM.

With `Cc1ccccc1NC(=O)C(C)c1ccc(CC(C)C)cc1` (stereo not drawn) [Ibu-AM38, 2–(4-Isobutylphenyl)-N-(o-tolyl)propanamide] the IC50 (rat brain FAAH [1]) was 2000 nM.

In the case of `COc1ccc(NC(=O)C(C)c2ccc(CC(C)C)cc2)c(C)c1` (stereo not drawn) [Ibu-AM67, 2-(4-Isobutylphenyl)-N-(4-methoxy-2-methylphenyl)propanamide], the IC50 (rat brain FAAH [1]) is reported as 7900 nM and the melting point is reported as 100 to 102 °C.

`CC(C)Cc1ccc(C(C)C(=O)Nc2ccccc2O)cc1` (stereo not drawn) [Ibu-AM59, N-(2-Hydroxyphenyl)-2-(4-isobutylphenyl)propanamide] showed an IC50 (rat brain FAAH [1]) of 8500 nM.

`Cc1cccnc1NC(=O)C1(c2ccc(CC(C)C)cc2)CC1` [Ibu-AM73] showed an IC50 (rat brain FAAH [1]) of 4100 nM.

In the case of “2–(4-isobutylphenyl)-N-(3-methylpyridin-2-yl)propenamide [Ibu-AM5]”, the ulcerogenic potency [2] is listed as “without appreciable ulcerogenic potency”, the “analgesic activity, acetic acid-induced visceral nociception” value [3] is listed as “analgesic activity” and the IC50 (ovine COX-1 [4]) is listed as roughly 50 µM. For the same compound, the “effect upon COX-2 with AA as substrate” value (human recombinant COX-2 [5]; 100 µM Ibu-AM5) was “without effect” and the IC50 (human recombinant COX-2 [5]; read-out: concentration reducing the rate of cyclooxygenation to about half, COX-2, AEA as substrate) was roughly 3000 nM.

With `CC(C)Cc1ccc(C(C)C(=O)Nc2ncccc2Cl)cc1` (stereo not drawn) [Ibu-AM58, N-(3-Chloropyridin-2-yl)-2-(4-isobutylphenyl)propanamide] the IC50 (rat brain FAAH [1]) was 910 nM.

With `CC(C)Cc1ccc(C(C)C(=O)Nc2ncccc2Br)cc1` (stereo not drawn) [Ibu-AM68, N-(3-Bromopyridin-2-yl)−2-(4-isobutylphenyl)propanamide] the “inhibition of AA cyclooxygenation by COX-1” value (ovine COX-1 [6]; 10 µM compound) was “modest inhibition”, the “inhibition of AA cyclooxygenation by COX-1” value (ovine COX-1 [6]; 50 and 100 µM compound) was “complete inhibition” and the IC50 (rat brain FAAH [1]) was 83 nM. The “mode of inhibition of FAAH” value (rat brain FAAH [1]; 60 min preincubation, 20-fold dilution, kinetic experiments) was “reversible, mixed-type mechanism of inhibition; also recorded: reversible mixed inhibitor”, the “time-dependence of the inhibition” value (rat brain FAAH [1]; preincubation with homogenates for up to 60 min prior to addition of substrate) was “no time-dependence of the inhibition” and the Ki (rat brain FAAH [7]) was 260 nM. The “α value (ratio of the Ki intercept: Ki slope values)” value (rat brain FAAH [7]) was 4.9, the “inhibition of 2-AG cyclooxygenation by COX-2” value (human recombinant COX-2 [8]; 10 µM compound, 10 µM 2-AG) was “greatly reduced; also recorded: almost completely inhibited” and the “inhibition of AA cyclooxygenation by COX-2” value (human recombinant COX-2 [8]; 10 µM compound) was “did not inhibit”. For the same compound, the “inhibition of AA cyclooxygenation by COX-2” value (human recombinant COX-2 [8]; 50 and 100 µM compound) was “did not inhibit”.

`Cc1cccnc1NC(=O)C(C)(C)c1ccc(CC(C)C)cc1` [Ibu-AM72, 2-(4-Isobutylphenyl)-2-methyl-N-(3-methylpyridin-2-yl)propanamide] showed an IC50 (rat brain FAAH [1]) of 1000 nM.

Compound `CC(C)Cc1ccc(C(C)C(=O)Nc2ncccc2I)cc1` (stereo not drawn) [Ibu-AM69, N-(3-Iodopyridin-2-yl)-2-(4-isobutylphenyl)propanamide] has an IC50 (rat brain FAAH [1]) of 120 nM.

Compound `Cc1cc(O)ccc1NC(=O)C(C)c1ccc(CC(C)C)cc1` (stereo not drawn) [Ibu-AM66, N-(4-Hydroxy-2-methylphenyl)-2-(4-isobutylphenyl)propanamide] has an IC50 (rat brain FAAH [1]) of 350 nM and a melting point of 133 to 135 °C.

In the case of “N-(3-chloropyridin-2-yl)−2–(4-((2-(trifluoromethyl)pyridin-4-yl)amino)phenyl)propenamide [TPA-14]”, the COX-inhibitory potency (COX) is given as “lacked COX-inhibitory potency”.

In the case of `CCCCCCNC(=O)Oc1cccc(-c2ccc(C(C)C(=O)O)cc2F)c1` (racemic) [ARN2508, (±)−2-[3-fluoro-4-[3-(hexylcarbamoyloxy)phenyl]phenyl]propanoic acid], the “anti-inflammatory effects in vivo” value [9] is listed as “produced anti-inflammatory effects in vivo”, the gastric irritation ([9]; in vivo) is listed as “without causing gastric irritation” and the IC50 (COX-2) is listed as 420 nM. The IC50 (COX-1) was 12 nM and the IC50 (FAAH) was 31 nM.

Compound `CC(C)Cc1ccc(C(C)C(=O)Nc2ncccc2C(F)(F)F)cc1` (stereo not drawn) [Ibu-AM60, 2-(4-Isobutylphenyl)-N-(3-(trifluoromethyl)pyridin-2-yl)propanamide] has an IC50 (rat brain FAAH [1]) of 360 nM and a melting point of 112 to 114 °C.

In the case of `Cc1cccnc1NC(=O)Cc1ccc(CC(C)C)cc1` [Ibufenac-AM1], the “reduction of FAAH inhibitory potency relative to Ibu-AM5” value (rat brain FAAH [10]) is listed as “roughly 60 fold”.

Work on `CC(C)Cc1ccc(C(C)C(=O)Nc2ncccc2O)cc1` (stereo not drawn) [Ibu-AM70, N-(3-Hydroxypyridin-2-yl)-2-(4-isobutylphenyl)propenamide] yielded an IC50 (rat brain FAAH [1]) of 2700 nM.
